Laboratory results taken from the NIST ThermoML archive (doi:10.1021/je200651r).
± gives the expanded uncertainty stated by the source.

Experiments:
[1] = Liquid, Manometric method
[2] = refractive index (Na D-line) (dimensionless); settings: 298.15 K; 101.33 kPa; Liquid; Standard Abbe refractometry

Compound	vapor or sublimation pressure ([1]; 343.15 K) [kPa]	vapor or sublimation pressure ([1]; 353.15 K) [kPa]	vapor or sublimation pressure ([1]; 363.15 K) [kPa]	refractive index [2]
C[N+](=O)[O-] [nitromethane]	34.93 ± 0.31	50.14 ± 0.41	70.81 ± 0.53	1.3794 ± 0.0009
CC[N+](=O)[O-] [nitroethane]	22.46 ± 0.23	32.84 ± 0.29	47.13 ± 0.37	1.3898 ± 0.0009
ClCCCCl [1,3-dichloropropane]	18.31 ± 0.19	26.84 ± 0.22	38.65 ± 0.27	1.4462 ± 0.0008
